pIC50: −log10 of the molar value. Where “and” joins values, the source holds several entries; their conditions need not be identical. Identical values can stand only once.
System: 695427-040-R-J1-PDC complex spheroid viability
Test: Anticancer human tumor 695427-040-R-J1-PDC patient-derived colon adenocarcinoma cell line growth inhibition [POLQ]
Conditions: for viability, T/C: stronger effect = lower value
Protocol: Multicellular complex tumor spheroid response to Polymerase (POL) inhibitors (novobiocin, ART-558, RP6685) in combination with a variety of drugs and investigational agents in selected tumor cell lines
The POL inhibitors (novobiocin, ART-558, and RP6685) were evaluated both individually and in combination with standard of care and investigational anticancer small molecules within a complex spheroid model of solid tumors. . Complex spheroids include a stromal component modeled by human endothelial cells (HUVEC) and fibroblasts modeled by human mesenchymal stem cells (MSCs). The concentration ranges selected for each drug and investigational agent were based upon clinically achievable concentrations if the clinical Cmax of the agent was known.
Compounds. The drugs and investigational agents: novobiocin (NSC847541), ART-558 (NSC835418), RP-6685 (NSC848927), peposertib (NSC802822), ceralasertib (NSC780249), elimusertib (NSC800525), camonsertib (NSC841442), AZD-1390 (NSC803789), olaparib (NSC753686), talazoparib (NSC767125), rucaparib (NSC756644), sotorasib (NSC818433), MRTX-1133 (NSC836407), SN-38 (NSC673596), topotecan (NSC609699), epotoside (NSC141540), doxorubicin (NSC123127), gemcitabine (NSC613327), 5-fluorouracil (NSC19893), paclitaxel (NSC125973), vemurafenib (NSC761431), MSA-2 (NSC828583), SN-011 (NSC837082), adavosertib (NSC754352), prexasertib (NSC758257), carboplatin (NSC241240) and oxaliplatin (NSC266046), were obtained from the National Cancer Institute (NCI) Developmental Therapeutics Program Chemical Repository (21). The FDA-approved anticancer drug set is available from the Developmental Therapeutics Program at https://dtp.cancer.gov/organization/dscb/obtaining/. […] The stock solutions were prepared in dimethyl sulfoxide (DMSO, Sigma-Aldrich, St. Louis, MO, cat. D2650), except for the platinum compounds which were prepared in saline (Quality Biological, Gaithersburg, MD, cat. 114-055-101), at 800-fold the tested concentration and stored at -70 degrees C prior to their use. All drugs and investigational agents were tested over a range starting from a high concentration at or near the clinical Cmax and decreasing in half-log increments. If the clinical Cmax for an agent had not been determined, the highest concentration tested was 10 microM, except for SN-38, which was tested at a high concentration of 1 microM.
Cell Culture. All cells were maintained in an incubator at 37 degrees C and 5% CO2 with 95% humidity. The PDC lines were cultured according to standard operating procedures established by the NCI PDMR (https://pdmr.cancer.gov). Table 3 of the manuscript, lists the cell lines along with the number of the three cell types plated to form the mct-spheroids and media for tumor cell growth. After thawing, all PDC lines, except 997537-175-T-J1-PDC and 415267-285-R-J2-PDC, were cultured in Matrigel-coated flasks prepared with a working solution of 1X Ham's F-12 nutrient mix, without supplementation (Thermo Fisher Scientific, cat. 11765054), 100 U/mL penicillin-streptomycin (Thermo Fisher Scientific, cat. 15140122), and 2.5% Matrigel (Corning Inc., Corning, NY, cat. 354248) for the first three passages. The two PDC lines 997537-175-T-J1-PDC and 415267-285-R-J2-PDC were cultured on uncoated flasks. The 857933-349-R-J2-PDC line was cultured in 6C/Colon 1B media containing advanced DMEM/F-12 (Thermo Fisher Scientific, cat. 12634028), 10 mM HEPES (Thermo Fisher Scientific, cat. 15630080), 1X GlutaMAX supplement (Thermo Fisher Scientific, cat. 35050061), 0.1 mg/mL primocin (InvivoGen, San Diego, CA, cat. ant-pm-2), 10% defined fetal bovine serum, heat inactivated (HyClone Laboratories Inc., Logan, UT, cat. SH30070.03HI), 50% L-WRN conditioned media (ATCC, cat. CRL-3276), 1.25 mM N-Acetyl-L-cysteine (Sigma-Aldrich, cat. A9165), 10 mM nicotinamide (Sigma-Aldrich, cat. N0636), 1X B-27 supplement (Thermo Fisher Scientific, cat. 17504044), 1X N-2 supplement (Thermo Fisher Scientific, cat. […]

[1] = curve of first compound, second compound 0.0316 µM
[2] = curve of first compound, second compound 0.1 µM
[3] = curve of first compound, second compound 0.316 µM
[4] = curve of first compound, second compound 1 µM
[5] = curve of first compound, second compound 3.16 µM
[6] = curve of first compound, second compound 10 µM
[7] = second compound 0.0316 µM, first compound 0.0316 µM
[8] = second compound 0.0316 µM, first compound 0.1 µM
[9] = second compound 0.0316 µM, first compound 0.316 µM
[10] = second compound 0.0316 µM, first compound 1 µM
[11] = second compound 0.0316 µM, first compound 3.16 µM
[12] = second compound 0.0316 µM, first compound 10 µM
[13] = second compound 0.1 µM, first compound 0.0316 µM
[14] = second compound 0.1 µM, first compound 0.1 µM
[15] = second compound 0.1 µM, first compound 0.316 µM
[16] = second compound 0.1 µM, first compound 1 µM
[17] = second compound 0.1 µM, first compound 3.16 µM
[18] = second compound 0.1 µM, first compound 10 µM
[19] = second compound 0.316 µM, first compound 0.0316 µM
[20] = second compound 0.316 µM, first compound 0.1 µM
[21] = second compound 0.316 µM, first compound 0.316 µM
[22] = second compound 0.316 µM, first compound 1 µM
[23] = second compound 0.316 µM, first compound 3.16 µM
[24] = second compound 0.316 µM, first compound 10 µM
[25] = second compound 1 µM, first compound 0.0316 µM
[26] = second compound 1 µM, first compound 0.1 µM
[27] = second compound 1 µM, first compound 0.316 µM
[28] = second compound 1 µM, first compound 1 µM
[29] = second compound 1 µM, first compound 3.16 µM
[30] = second compound 1 µM, first compound 10 µM
[31] = second compound 3.16 µM, first compound 0.0316 µM
[32] = second compound 3.16 µM, first compound 0.1 µM
[33] = second compound 3.16 µM, first compound 0.316 µM
[34] = second compound 3.16 µM, first compound 1 µM
[35] = second compound 3.16 µM, first compound 3.16 µM
[36] = second compound 3.16 µM, first compound 10 µM
[37] = second compound 10 µM, first compound 0.0316 µM
[38] = second compound 10 µM, first compound 0.1 µM
[39] = second compound 10 µM, first compound 0.316 µM
[40] = second compound 10 µM, first compound 1 µM
[41] = second compound 10 µM, first compound 3.16 µM
[42] = second compound 10 µM, first compound 10 µM
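Also: spheroids exposed to compounds for seven days.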
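For viability, T/C in this document: 100% = DMSO vehicle control viability.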

`COC1C(OC(N)=O)C(O)C(Oc2ccc3c(O)c(NC(=O)c4ccc(O)c(CC=C(C)C)c4)c(=O)oc3c2C)OC1(C)C` (stereo not drawn) was tested, and the viability, T/C (compound 0.0316 µM) was 104% [middle of 13 runs], the viability, T/C (compound 0.1 µM) was 104% [middle of 13 runs] and the viability, T/C (compound 0.316 µM) was 106% [middle of 13 runs]. The viability, T/C (compound 1 µM) was 106% [middle of 13 runs], the viability, T/C (compound 3.16 µM) was 110% [middle of 13 runs] and the viability, T/C (compound 10 µM) was 110% [middle of 13 runs]. It also gave a pIC50 (compound alone, run of 10/31/2023) of less than 5.00.

With `CC1COCCN1c1cc(C2(O)CC3CCC(C2)O3)c2cnn(-c3ccn[nH]3)c2n1` (stereo not drawn) the viability, T/C (compound 0.0316 µM) was 100% and 101% and 103%, the viability, T/C (compound 0.1 µM) was 85.7% and 87.4% and 94.1% and the viability, T/C (compound 0.316 µM) was 79.1% and 75.7% and 85.8%. The viability, T/C (compound 1 µM) was 64.4% and 68.9% and 78.5%, the viability, T/C (compound 3.16 µM) was 55.6% and 52% and 69% and the viability, T/C (compound 10 µM) was 46.3% and 44.4% and 55.9%. The pIC50 (curve of compound) was 5.20 and 5.29 and < 5.00.

In the case of `COc1cccc2c1C(=O)c1c(O)c3c(c(O)c1C2=O)CC(O)(C(=O)CO)CC3OC1CC(N)C(O)C(C)O1` (stereo not drawn) + COC1C(OC(N)=O)C(O)C(Oc2ccc3c(O)c(NC(=O)c4ccc(O)c(CC=C(C)C)c4)c(=O)oc3c2C)OC1(C)C, the pIC50 [1] was less than 5.00, the pIC50 [2] was less than 5.00 and the pIC50 [3] was less than 5.00. For the same compound, the pIC50 [4] was less than 5.00, the pIC50 [5] was less than 5.00 and the pIC50 [6] was less than 5.00. For the same compound, the viability, T/C [7] was 98.1%, the viability, T/C [8] was 96.5% and the viability, T/C [9] was 98%. For the same compound, the viability, T/C [10] was 74%, the viability, T/C [11] was 68.2% and the viability, T/C [12] was 54.5%. The viability, T/C [13] was 106%, the viability, T/C [14] was 95.2% and the viability, T/C [15] was 95.1%. The viability, T/C [16] was 74.4%, the viability, T/C [17] was 64% and the viability, T/C [18] was 51.5%. The viability, T/C [19] was 102%, the viability, T/C [20] was 91.6% and the viability, T/C [21] was 84%. The viability, T/C [22] was 79%, the viability, T/C [23] was 65.9% and the viability, T/C [24] was 48.6%. The viability, T/C [25] was 98.4%, the viability, T/C [26] was 95.1% and the viability, T/C [27] was 92.1%. The viability, T/C [28] was 81.1%, the viability, T/C [29] was 68.3% and the viability, T/C [30] was 50.3%. For the same compound, the viability, T/C [31] was 99.4%, the viability, T/C [32] was 98% and the viability, T/C [33] was 88.9%. It also gave a viability, T/C [34] of 75.7%, a viability, T/C [35] of 70.1% and a viability, T/C [36] of 54.5%. It also gave a viability, T/C [37] of 103%, a viability, T/C [38] of 90.5% and a viability, T/C [39] of 105%. For the same compound, the viability, T/C [40] was 87.3%, the viability, T/C [41] was 67.5% and the viability, T/C [42] was 55.8%.

In the case of `CNCc1ccc(-c2[nH]c3cc(F)cc4c3c2CCNC4=O)cc1` + COC1C(OC(N)=O)C(O)C(Oc2ccc3c(O)c(NC(=O)c4ccc(O)c(CC=C(C)C)c4)c(=O)oc3c2C)OC1(C)C, the pIC50 [1] was less than 5.00, the pIC50 [2] was less than 5.00 and the pIC50 [3] was less than 5.00. The pIC50 [4] was less than 5.00, the pIC50 [5] was less than 5.00 and the pIC50 [6] was less than 5.00. For the same compound, the viability, T/C [7] was 94.5%, the viability, T/C [8] was 96.1% and the viability, T/C [9] was 108%. It also gave a viability, T/C [10] of 99.7%, a viability, T/C [11] of 112% and a viability, T/C [12] of 103%. The viability, T/C [13] was 108%, the viability, T/C [14] was 95.1% and the viability, T/C [15] was 107%. For the same compound, the viability, T/C [16] was 103%, the viability, T/C [17] was 112% and the viability, T/C [18] was 111%. The viability, T/C [19] was 101%, the viability, T/C [20] was 99.8% and the viability, T/C [21] was 94.5%. The viability, T/C [22] was 96.8%, the viability, T/C [23] was 115% and the viability, T/C [24] was 105%. It also gave a viability, T/C [25] of 97.6%, a viability, T/C [26] of 95% and a viability, T/C [27] of 105%. It also gave a viability, T/C [28] of 103%, a viability, T/C [29] of 112% and a viability, T/C [30] of 115%. For the same compound, the viability, T/C [31] was 101%, the viability, T/C [32] was 99.3% and the viability, T/C [33] was 108%. For the same compound, the viability, T/C [34] was 93.2%, the viability, T/C [35] was 117% and the viability, T/C [36] was 103%. It also gave a viability, T/C [37] of 98.1%, a viability, T/C [38] of 91.8% and a viability, T/C [39] of 106%. For the same compound, the viability, T/C [40] was 109%, the viability, T/C [41] was 114% and the viability, T/C [42] was 113%.
